Experiments:
[1] = target: Receptor-interacting serine/threonine-protein kinase 3 (Homo sapiens, UniProt Q9Y572); experiment: Binding affinity to recombinant human wild type partial length RIPK3 (M1 to Q307 residues) expressed in bacterial expression system by KINOMEscan TM assay
[2] = target: T1, Receptor-interacting serine/threonine-protein kinase 1 (Homo sapiens, UniProt Q13546); experiment: Binding affinity to recombinant human wild type partial length RIPK1 (M1 to K305 residues) expressed in bacterial expression system by KINOMEscan TM assay
T1 sequence (Q13546 whole entry): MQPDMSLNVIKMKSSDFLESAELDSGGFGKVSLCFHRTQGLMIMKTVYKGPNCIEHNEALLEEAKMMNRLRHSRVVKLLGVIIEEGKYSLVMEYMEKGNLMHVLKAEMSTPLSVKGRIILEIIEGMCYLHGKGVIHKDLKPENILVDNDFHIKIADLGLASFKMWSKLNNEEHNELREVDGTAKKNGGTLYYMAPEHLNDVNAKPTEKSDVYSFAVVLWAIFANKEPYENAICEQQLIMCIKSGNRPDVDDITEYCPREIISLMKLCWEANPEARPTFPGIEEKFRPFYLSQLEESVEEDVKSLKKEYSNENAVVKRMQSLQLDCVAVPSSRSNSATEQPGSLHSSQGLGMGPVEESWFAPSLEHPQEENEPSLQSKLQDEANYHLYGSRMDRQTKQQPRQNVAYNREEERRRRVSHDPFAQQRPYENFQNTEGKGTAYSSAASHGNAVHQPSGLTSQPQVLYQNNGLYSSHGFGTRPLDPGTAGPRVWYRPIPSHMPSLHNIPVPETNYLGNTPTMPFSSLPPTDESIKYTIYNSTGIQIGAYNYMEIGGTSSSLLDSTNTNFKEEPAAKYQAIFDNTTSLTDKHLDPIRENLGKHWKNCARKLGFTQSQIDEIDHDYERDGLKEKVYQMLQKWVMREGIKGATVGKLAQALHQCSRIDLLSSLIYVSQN

[3] = Cytotoxicity against human HT-29 cells assessed as reduction in cell viability by celltiter-glo luminescent cell viability assay; assay type: toxicity, cell-based
HT-29 = experiment: Anti-necroptotic activity in TSZ induced human HT-29 cells assessed as increase in cell viability pretreated with compound followed by TSZ stimulation and measured after 16 hrs by celltiter-glo luminescent cell viability assay; assay type: functional, cell-based

Receptor-interacting serine/threonine-protein kinase 3, sequence (Q9Y572 whole entry, the tested form may be a part): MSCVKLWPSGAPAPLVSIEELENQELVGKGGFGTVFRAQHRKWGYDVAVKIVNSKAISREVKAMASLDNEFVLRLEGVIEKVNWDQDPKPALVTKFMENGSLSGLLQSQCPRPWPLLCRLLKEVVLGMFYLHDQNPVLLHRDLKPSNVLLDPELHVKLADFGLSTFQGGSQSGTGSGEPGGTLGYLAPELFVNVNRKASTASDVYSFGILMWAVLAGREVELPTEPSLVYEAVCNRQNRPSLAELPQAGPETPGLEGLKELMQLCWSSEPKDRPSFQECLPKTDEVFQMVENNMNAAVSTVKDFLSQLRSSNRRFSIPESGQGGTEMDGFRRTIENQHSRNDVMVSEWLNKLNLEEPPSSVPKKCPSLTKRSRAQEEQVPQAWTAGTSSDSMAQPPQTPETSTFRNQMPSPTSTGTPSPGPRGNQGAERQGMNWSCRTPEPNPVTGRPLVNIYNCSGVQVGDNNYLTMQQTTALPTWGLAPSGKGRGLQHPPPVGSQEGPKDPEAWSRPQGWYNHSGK

O=C(Cc1cccc(C(F)(F)F)c1)Nc1cc(Oc2cc3nc(NC(=O)C4CC4)sc3cc2F)ccc1F
Kd [1]: 77 nM
Kd [2]: 97 nM
CC50 [3]: 36500 nM
EC50 (HT-29): 170 nM

Source: ChEMBL document CHEMBL5096222, “Discovery of a Trifluoromethoxy Cyclopentanone Benzothiazole Receptor-Interacting Protein Kinase 1 Inhibitor as the Treatment for Alzheimer's Disease” (J Med Chem, 2022)
